Assay results reported in US10265327B2, “V1A antagonists to treat phase shift sleep disorders” (Hoffmann-La Roche Inc., priority 2013, dated 2019).
Entries after “also recorded” stand apart in the source; their conditions may differ.

Tested on: C57BL/6J mice
Assay: Jet-lag test: behavioural re-entrainment to 6 h phase advance of the LD cycle
Format: in vivo, mouse
Settings: for days to total behavioural re-entrainment after the 6 h phase shift: mean ± SEM, n=5
Description: In all studies described below, male young-adult C57BL/6J mice (4 weeks old at the beginning of experiments) were used. Animals were exposed to a light-dark cycle (LD) 12:12 (lights on from 8 h to 20 h geographical time; light intensity at 200 lux; during dark period dim red light of 5 lux) in individual cages with food and water ad libitum and temperature (22±1° C.) and humidity (55%±5%) controlled. LD cycle was represented as zeitgeber times (ZT) where ZT0 represents the lights on and ZT12 lights off. When animals were exposed to constant darkness conditions (DD), circadian times (CT) were used as time point references, where CT12 corresponds to activity onset.
To evaluate the effects of the V1a antagonist trans-8-chloro-5-methyl-1-(4-pyridin-2-yloxycyclohexyl)-4,6-dihydro-[1,2,4]triazolo[4,3-a][1,4]benzodiazepine on light synchronization of behavioural circadian rhythms, a jet-lag protocol of 6 h phase shift was used. After being under a LD cycle 12 h/12 h (for at least 10 days), mice were exposed to a 6 -h phase advance of the light-dark cycle (first “jet-lag” test, advance shift) and to the administration of vehicle or 30 mg/kg of the V1a antagonist trans-8-chloro-5-methyl-1-(4-pyridin-2-yloxycyclohexyl)-4,6-dihydro-[1,2,4]triazolo[4,3-a][1,4]benzodiazepine. On the day of the shift, the time of lights off was phase-advanced by 6 h. Here we used three groups of animals: a sham group (Group 1, n=3), animals in which the cannula was introduced in the oral cavity without any solution delivery; a vehicle group (Group 2, n=4), which received vehicle, and a 30 mg/kg trans-8-chloro-5-methyl-1-(4-pyridin-2-yloxycyclohexyl)-4,6-dihydro-[1,2,4]triazolo[4,3-a][1,4]benzodiazepine group (Group 3, n=5). All manipulations were at ZT6 (6 h after lights on) on the last LD cycle before the 6 h phase advance.
In a second experiment, using naive animals, a second jet-lag test was evaluated. Thus, using a new group of male mice, the effects of 30 mg/kg trans-8-chloro-5-methyl-1-(4-pyridin-2-yloxycyclohexyl)-4,6-dihydro-[1,2,4]triazolo[4,3-a][1,4]benzodiazepine on the re-synchronization to a 6 h phase advance of the LD cycle were tested. Animals under a LD cycle 12 h/12 h (for at least 10 days) were exposed to a phase advance of 6 h of the LD cycle and to the administration of vehicle or 30 mg/kg of the V1a antagonist trans-8-chloro-5-methyl-1-(4-pyridin-2-yloxycyclohexyl)-4,6-dihydro-[1,2,4]triazolo[4,3 -a][1,4]benzodiazepine at ZT/CT6. Similarly to the previous experiment, three groups of animals were used: a sham group (Group 1, n=3), animals in which the cannula was introduced in the oral cavity without any solution delivery; a vehicle group (Group 2, n=4) which received vehicle, and a 30 mg/kg trans-8-chloro-5-methyl-1 -(4-pyridin-2-yloxycyclohexyl)-4,6-dihydro-[1,2,4]triazolo[4,3 -a][1,4]benzodiazepine group (Group 3, n=5).
The locomotor activity rhythms were measured using infra-red detectors on the top of the cages and/or running wheels.
Re-entrainment (jet-lag tests): For 6 h phase-shift (jet-lag protocol) the number of days after the shift for total re-entrainment was quantified, considering both the onset and offset of activity. The onsets and offsets of activity were identified automatically using ClockLab software. Thus, full resynchronization to a new LD cycle, after 6-hour phase shifts of the time of lights off, was considered when activity onset took place at the new time of lights off ±30 minutes. The number of days (transitory cycles) required to re-synchronize was calculated for each mouse. The speed of re-entrainment was evaluated calculating the onset of activity and the advance of it, in hours, daily. To evaluate the effects of manipulations on locomotion, the locomotor activity changes from 0 to 6 h after each treatment were quantified in 30 min intervals (see activity profiles determination).
Values in all experiments are means ±SEM. […]

SMILES: CN1Cc2cc(Cl)ccc2-n2c(nnc2[C@H]2CC[C@H](Oc3ccccn3)CC2)C1 [Example 1, trans-8-chloro-5-methyl-1-(4-pyridin-2-yloxycyclohexyl)-4,6-dihydro-[1,2,4]triazolo[4,3-a][1,4]benzodiazepine]
- re-entrainment of the circadian clock to a new LD cycle (overall conclusion) (both jet-lag experiments, 30 mg/kg): accelerates the re-entrainment
- locomotor activity induced by manipulations (jet-lag test 1, 30 mg/kg at ZT6, 0 to 6 h after treatment): not significantly different between groups
- daily adjustment of onset of activity to the LD cycle (speed of re-entrainment) (jet-lag test 1, 30 mg/kg at ZT6, first 5 days after the shift, 30 mg/kg): much more rapid daily adjustment; also recorded: significantly faster re-entrainment
- days to total behavioural re-entrainment after the 6 h phase shift (jet-lag test 1, 30 mg/kg oral at ZT6): 3.2 ± 0.33 days
- increase in locomotion induced by manipulations (second jet-lag test, naive mice, 30 mg/kg at ZT/CT6): not significantly different between groups
- daily adjustment of onset of activity to the LD cycle (speed of re-entrainment) (second jet-lag test, naive mice, 30 mg/kg at ZT/CT6, first 4 days after the shift, 30 mg/kg): much more rapid daily adjustment; also recorded: significantly faster re-entrainment
- days to total behavioural re-entrainment after the 6 h phase shift (second jet-lag test, naive mice, 30 mg/kg oral at ZT/CT6): 3.4 ± 0.24 days
